Test results as given in patent publication US20250170099A1, “TREATMENT OF POSTNATAL DEPRESSION” (GH RESEARCH IRELAND LIMITED, priority 2022, published 2025).

Experiment: Pharmacokinetics of 5-MeO-DMT and bufotenine after inhalation
Format: in vivo, human
Settings: within 1 to 4 hours

With `COc1ccc2[nH]cc(CCN(C)C)c2c1` [5-MeO-DMT] as the compound, how does the “accumulation upon repeated administration” value read?
The value was “No accumulation”.
